Measured values published in patent publication US12286439B2, “Inhibitors of ERK nuclear translocation” (Yeda Research and Development Co. Ltd., priority 2018, dated 2025).
Entries after “also recorded” stand apart in the source; their conditions may differ.

Legend:
Type in all cases: cell-based
[1] = system: c-Myc phosphorylation (nuclear target of ERK1/2); experiment: Western blot, phosphorylated c-Myc; conditions: 10 μM, 2 hours; TPA; both A2185 and HeLa cells
Method: (§1) CoIP assay was conducted using αERK1 (C-terminus) antibodies conjugated to protein A/G agarose beads. The precipitates were analyzed by Western blot using the indicated antibodies. Whole cell lysates (WCL) and αIgG-mouse (IgG) are shown as controls. […] Cell extracts were analyzed by Western blot with the indicated antibodies. […] The same extracts described in (B) were subjected to Western blot analysis using αpAkt Abs. The closest molecular weight marker (kDa) is shown on the right of all relevant panels.
(§2) Bars indicate average of 2 independent experiments done in triplicate ±SE. […] Empty squares represent individual data points of proliferation. Full squares indicate average proliferation of 2 independent experiments done in triplicate ±SE. […] Cell viability (as shown in FIGS. 8A and 8B) was measured by staining with methylene blue, and data presents proliferation normalized to DMSO control. […] Cell lysates were analyzed by Western blot with the corresponding antibodies. Closest molecular marker is indicated at the right of each panel.
(§3) Preparation of Cellular Extracts and Western Blotting:
(§4) Cells were grown to 70% confluence and serum starved (0.1% FCS, 16 hours). After treatments, cells were rinsed twice with ice-cold PBS−/− and scraped into RIPA buffer. […]

[2] = system: RSK1 phosphorylation (cytoplasmic target of ERK1/2); experiment: Western blot, phosphorylated RSK1; conditions: 10 μM, 2 hours; TPA; A2185 or HeLa cells
Method: as §1, §2, §3, §4

[3] = system: Elk1 phosphorylation (nuclear target of ERK1/2); experiment: Western blot, phosphorylated Elk1; conditions: 10 μM, 2 hours; TPA; melanoma cell line A2185
Method: as §1, §2, §3, §4

A2185 cells = experiment: Viability assay, dose response in A2185 cells; conditions: 0.1-10 μM, 72 hours, 1% FCS
Method: (§5) Four cancer cells, A2185, A2352, HeLa and MCF7 were grown in 1% FCS containing 10 μM of either EPE peptide, or Compounds Z56, Z1, Z2 or Z3, for 72 hours. Bars indicate average of 2 independent experiments done in triplicate ±SE. FIG. 8B presents dose response curves for Compounds Z56, Z1 and Z2. A2185 cells were grown in 1% FCS containing DMSO (0.1%) EPE or Scramble (Scr) peptide (10 μM), Compounds Z56, Z1, Z2, Z3 ([…]) or no treatment (FCS 1%) for 72 hours. Empty squares represent individual data points of proliferation. Full squares indicate average proliferation of 2 independent experiments done in triplicate ±SE. Bold horizontal line indicates arbitrary threshold (40%) for what is considered an active compound. Cell viability (as shown in FIGS. 8A and 8B) was measured by staining with methylene blue, and data presents proliferation normalized to DMSO control. […] Cell lysates were analyzed by Western blot with the corresponding antibodies. […]
(§6) Cells were seeded at low confluence into 24, 48 or 96-well plates in complete medium. […] Color was extracted by adding 0.1 M HCl (3 hours, 23° C.), and absorbance measured at 595 nm in an ELISA reader. For time course experiments, attached cells were fixed and measured at 0, 24, 48, 72 and 96 hours. […]

[4] = system: ERK1/2 phosphorylated at the TEY activation loop motif; experiment: Western blot, ERK1/2 activation loop (TEY) phosphorylation; conditions: 10 μM, 2 hours; TPA; A2185 or HeLa cells
Method: as §1, §2, §3, §4

[5] = system: A2185, A2352, HeLa and MCF7 cells; experiment: Viability assay (methylene blue), four cancer lines; conditions: 72 hours, 1% FCS, in 3 or 4 cell lines, read-out: reduction of cell viability
Method: as §5, §6

## O=C(OC1C=CS(=O)(=O)C1)c1ccccc1 (stereo not drawn) [Compound Z2]
[1]
  levels of phosphorylated c-Myc: decreased
[2]
  phosphorylation of the cytosolic target RSK1/2: none of Compounds Z56, Z1, Z2 or Z3 affected
[3]
  levels of phosphorylated Elk1: decreased significantly
A2185 cells
  cell viability, dose response curve: dose dependent manner; also recorded: somewhat less potent than Compound Z56
[4]
  phosphorylation of the activation loop of ERK1/2: none of Compounds Z56, Z1, Z2 or Z3 affected
[5]
  cytotoxicity at 10 µM: ~60%
